From patent US20240417727A1, “ANTAGONIST OF THE MIRNA-106B-5P TO TREAT OR PREVENT THE CARDIOTOXICITY THAT IS DEVELOPED IN ONCOLOGIC PATIENTS AFTER RECEIVING ANTHRACYCLINE-BASED CHEMOTHERAPY” (UNIVERSIDAD DE MURCIA, priority 2021, published 2024)

Tests used:
[1] = tested on: miR-106b; assay: miR-106b levels by quantitative RT-PCR in hiPsCMs exposed to Dox; assay type: cell-based, human; conditions: 5 μM Dox
Procedure: Human induced pluripotent stem cells (hiPCs) were obtained from Phenocell®, (Catalog No. PCi_CAU) and cultured according to manufacturer's instructions. Briefly, hiPCs on a suitable matrix to allow attachment of cell aggregates (Matrigel®), were grown to 80% confluence using mTeSR™ plus medium. At passage 20, we started reprogramming procedure using a standardize protocol in our laboratory. Thus, culture medium was removed and changed to RPMI-1640 with B27 minus insulin supplement (basal differentiation supplement) with 4 μM CHIR99021 (day 0). On day 3, medium was changed to basal differentiation supplement and 3 μM IWR-1. On day 5, medium was refreshed with basal differentiation supplement. Medium was changed on day 8 to RPMI 1640 with B27 supplement (cited above as RMPI/B27). On day 11, medium was changed to RPMI 1640 without glucose with B27 minus insulin. On day 14, medium was changed to RPMI/B27; procedure that was repeated every 72 h. Beating clusters were observed after 7-14 days. A standardizing gene expression profiling (RT-qPCR) both hiPs as well as hiPsCMs were carried in each human isolated clone, before starting assays. […] The cardiotoxic treatment was carried out by exposing the cell culture to 5 μM doxorubicin for different time period; unless otherwise mentioned. All the in vitro assays were performed as three biological replicates, with technical replicates each time.
Mature miR-106b expression levels were assessed by quantitative RT-PCR using the miRCURY LNA UniRT PCR primer for miR813 106b-5p (Qiagen) and Power SYBR5Green PCR Master Mix (Thermo Fisher Scientific). U6 (Qiagen) was used as internal control to normalize miR-106b expression.

[2] = tested on: PR55α; assay: PR55α expression levels by Western blot in hiPsCMs; assay type: cell-based, human; conditions: for decrease in PR55α protein levels: Dox
From the text: The hsa-miR-106b-5p sequence of nucleotides was obtained from www.MiRbase.org. Human miR-106b (accession No: MIMAT0000680) and nucleotide sequence of 5′-[…]-3′ are homologous between mice and man. In order to express or block the specific miR-106b function, synthetic pre-miR-106b or antimiR-106 oligonucleotides were transfected into hiPsCMs cells, respectively. Lipofectamine RNAiMAX transfection reagent (ThermoFisher) was used according to the manufacturer's instructions. […] Two day before transfection, hiPsCMs cells were seeded in 6-well plates with 2 ml of STEMdiff™ Cardiomyocyte Support Medium (STEMCELL™ Technologies) to a density of 60%. Stock transfection mixes were made according to manufacturer's instructions. Briefly, 9 μl of Lipofectamine reagent was diluted in 141 μl of Opti-MEM I Medium (Invitrogen) and incubated 5 min at RT. In another tube, pre-miRNA, anti-miRNA or the specific controls oligonucleotides were diluted with Opti-MEM to a final concentration of 50 nM. Both mixes were incubated together for 30 min at RT to allow complex formation between miRNA and lipids. To transfect cells, the STEMdiff™ Cardiomyocyte Support Medium was removed and replaced with 1.75 ml fresh Medium and 250 μl of the appropriate transfection mix. Cells were incubated at 37° C. for […], after which hiPsCMs were treated with […] Dox for 15 h. Transfection efficiency was tested in parallel using both hiPsCMs as well as a mouse cell line HL-1 (FIG. 7). […]
(§1) Protein extracts (10 μg) obtained were denatured, separated by SDS-PAGE electrophoresis (Bio-Rad), transferred onto PVDF membrane (Millipore) and probed with antibodies to GADPH (MERCK, 8795,1:5000), TBP (CELL SIGNALING, 8515, 1:1000), PR55α (CELL SIGNALING, 5689, 1:1000), phospho-HDAC4 (ABCAM, ab39408, 1:2000), HDAC4 (CELL SIGNALING, 5392, 1:1000), YY1 (CELL SIGNALING, 2185,1:1000) and sST2 (PROTEINTECH, 11,920-1-AP, 1:1000). […] Signals were detected by chemiluminescence and quantified using ImageJ 1.44p pixel analysis (US National Institutes of Health).

[3] = tested on: HDAC4; assay: Phosphorylated and total HDAC4 in cytosol and nucleus (subcellular fractionation, Western blot); assay type: cell-based, human; conditions: hiPsCMs; for phosphorylation state of HDAC4 Ser246 in cytosol: Dox 15 h, preincubation 24 h before Dox; for total HDAC4 levels in nuclei fractions: Dox, pretreatment before Dox
Procedure: Briefly, fresh LV (˜30 mg) tissue or harvested untreated or treated cells (˜3×10^6 cells) were washed using cold DPBS along with 100-fold diluted protease and phosphatase inhibitors. Human cardiomyocytes were pelleted by centrifugation at 480×g for 10 min at 4° C., while the myocardium was placed in a pre-chilled glass Petri dish and minced on ice using sharp scissors. All samples were homogenized in 500 μl of STM buffer at pH 7.4, containing 250 mM sucrose, 50 mM Tris-HCl, 5 mM MgCl2, 5 mM Na3VO4, 1% (v/v) protease and phosphatase inhibitor cocktails and homogenized for 1 min on ice using a tight-fitting Teflon pestle attached to a Potter S. homogenizer (Sartorius Stedium, Goettingen, Germany) set to 800 rpm. The homogenate was maintained on ice for 30 min, vortexed at maximum speed for 15 s and then centrifuged at 800×g for 15 min at 4° C. The pellet was labelled as P0 and kept on ice; the supernatant was labelled as S0. The pellet P0 (containing nuclei and debris) was resuspended in 500 μl STM buffer, vortexed at maximum speed for 15 s and then centrifuged at 500×g for 15 min at 4° C. Following the above step, the nuclear pellet was labelled as P1 and kept on ice, and the supernatant S1 (cell debris) was discarded. To further increase the purity of the P1 fraction it was washed in 400 μl STM buffer, vortexed at maximum speed for 15 s and then centrifuged at 1000×g for 15 min at 4° C. The washed pellet was labelled as P2 (S2 was discarded) and resuspended in 100 μl NET buffer composed of 20 mM Hepes pH 7.9, 1.5 mM MgCl2, 0.5 M NaCl, 0.2 mM EDTA, 20% (v/v) glycerol, 1% (v/v) Triton-X-100 and protease and phosphatase inhibitors, using a pipette to triturate until homogeneity. Pellet P2 was vortexed at maximum speed for 15 s and incubated on ice for 30 min; the resulting fraction contained the nuclei, which were lysed by sonication (Soniprep 150, MSE, London, UK) at a high setting for 10-15 s with 30 s pauses whilst being kept on ice. The lysate was centrifuged at 9000×g for 30 min at 4° C., the resultant supernatant (S3) was the final “nuclear fraction”. […] The protein content of each compartment was determined using the BCA protein assay^48. […]
as §1

[4] = tested on: YY1; assay: YY1 expression levels by Western blot in hiPsCMs; assay type: cell-based, human; conditions: Dox
Procedure: (§2) Protein extracts (10 μg) obtained were denatured, separated by SDS-PAGE electrophoresis (Bio-Rad), transferred onto PVDF membrane (Millipore) and probed with antibodies to GADPH (MERCK, 8795,1:5000), TBP (CELL SIGNALING, 8515, 1:1000), PR55α (CELL SIGNALING, 5689, 1:1000), phospho-HDAC4 (ABCAM, ab39408, 1:2000), HDAC4 (CELL SIGNALING, 5392, 1:1000), YY1 (CELL SIGNALING, 2185,1:1000) and sST2 (PROTEINTECH, 11,920-1-AP, 1:1000). Membranes were developed using HRP conjugated secondary antibodies and Pierce ECL western blotting substrate (Thermo Fisher Scientific). Signals were detected by chemiluminescence and quantified using ImageJ 1.44p pixel analysis (US National Institutes of Health).

[5] = tested on: HDAC4-YY1 interaction; assay: Reciprocal co-immunoprecipitation of HDAC4 and YY1 in nuclear fraction of hiPsCMs; assay type: cell-based, human; conditions: nuclear fraction from hiPsCMs
Procedure: Briefly, fresh LV (˜30 mg) tissue or harvested untreated or treated cells (˜3×10^6 cells) were washed using cold DPBS along with 100-fold diluted protease and phosphatase inhibitors. Human cardiomyocytes were pelleted by centrifugation at 480×g for 10 min at 4° C., while the myocardium was placed in a pre-chilled glass Petri dish and minced on ice using sharp scissors. All samples were homogenized in 500 μl of STM buffer at pH 7.4, containing 250 mM sucrose, 50 mM Tris-HCl, 5 mM MgCl2, 5 mM Na3VO4, 1% (v/v) protease and phosphatase inhibitor cocktails and homogenized for 1 min on ice using a tight-fitting Teflon pestle attached to a Potter S. homogenizer (Sartorius Stedium, Goettingen, Germany) set to 800 rpm. The homogenate was maintained on ice for 30 min, vortexed at maximum speed for 15 s and then centrifuged at 800×g for 15 min at 4° C. The pellet was labelled as P0 and kept on ice; the supernatant was labelled as S0. The pellet P0 (containing nuclei and debris) was resuspended in 500 μl STM buffer, vortexed at maximum speed for 15 s and then centrifuged at 500×g for 15 min at 4° C. Following the above step, the nuclear pellet was labelled as P1 and kept on ice, and the supernatant S1 (cell debris) was discarded. […] The protein content of each compartment was determined using the BCA protein assay^48. […]

[6] = tested on: sST2; assay: sST2 expression levels in hiPsCMs; assay type: cell-based, human; conditions: Dox 15 h
Procedure: RNA isolation and quantitative RT-PCR.
as §2

[7] = tested on: miR-106b target FOG2 in hiPsCMs; assay: FOG2 mRNA levels (efficiency of miR-106b inhibition) in hiPsCMs; assay type: cell-based, human; conditions: preincubation 24 h, then Dox 15 h, vs AC
[8] = tested on: HL-1 cell line; assay: FOG2 mRNA levels in HL-1 cell line; assay type: cell-based, mouse; conditions: 5 μM Dox for 15 h
[9] = tested on: hiPsCMs; assay: LDH levels in cell supernatant from hiPsCMs; assay type: cell-based, human; conditions: Dox 15 h
[10] = tested on: hiPsCMs; assay: Assay for cell viability (MTT); assay type: cell-based, human; conditions: Dox 15 h
Procedure: After seeding 5×10^3 cells in each 96-well plate, they were incubated in 5% CO2 at 37° C. for 24 h. After cited treatment, MTT solution (1 mg/ml) was added to each well and an incubation was performed for 3 h at 37° C. Next, the medium containing MTT was removed and 100 μL of DMSO was added to each well and pipetted several times to form a completely uniform suspension. The solution was then shaken for 10 min at 37° C. until formazan crystals were completely dissolved. The obtained solution was added to a microtube and centrifuged in 1500 RPM for 5 min to eliminate any impurities. Absorbance of the samples was read at 570 nm and the background value at 690 nm was subtracted. The intrinsic absorbance value of doxorubicin was subtracted when necessary. The index of cell survival at each time point corresponds to the percentage with respect to control.

[11] = tested on: Caspase 3/7 activity in hiPsCMs; assay: Caspase-Glo 3/7 assay; assay type: cell-based, human; conditions: 5 μM Dox 15 h
Procedure: Caspase assay was performed as per the manufacturer's instructions with the Caspase-Glo 3/7 kit (Promega). In this setting, hiPsCMs were treated with 5 μM Dox for 15 h. Next, hiPsCMs and caspase assay reagent were left at RT for 30 min. The next step was adding an equal amount of caspase assay reagent and further incubated for 30 min at RT. Luminescence was measured using a microplate reader CLARIOstar Plus (BMG Labtech).

[12] = tested on: PP2A; assay: PP2A Immunoprecipitation Phosphatase Assay; assay type: cell-based, human; conditions: hiPsCMs, Dox treatment
Procedure: To measure PP2A phosphatase activity, we used a PP2A Immunoprecipitation Phosphatase Assay Kit (Millipore Sigma, catalog number 17-313). In brief, cells were lysed in 20 mM imidazole HCl, 2 mM EDTA, 2 mM EGTA, pH 7.0 with 10 μg/mL each of aprotinin, leupeptin, pepstatin, 1 mM benzamidine, and 1 mM PMSF. Two milligrams of the lysates were then immunoprecipitated with 2 μg of anti-STRN4 antibody (Abcam, ab177155) and 40 μl of protein-A-agarose beads at 4° C. overnight. Beads were washed three times with lysis buffer followed by the Ser/Thr assay buffer. Phosphatase reactions were then performed in Ser/Thr assay buffer with a final concentration of 750 μM of MAP4K4 phosphopeptides: S771/S775 (A-A-S-pS-L-N-L-pS-N-G-E-T-E-S-V-K), S876 (L-T-A-N-E-T Q-pS-A-S-S-T-L-Q-K) or S1251 (V-F-F-A-pS-V-R-S) for 10 min at 30° C. To provide evidence that the immunoprecipitated phosphatase activity is PP2A, we treated parallel immunoprecipitates with 5 nM of okadaic acid (Cell Signaling, #5934). Dephosphorylation of the phosphopeptide was measured through malachite green phosphate detection at 650 nm.

Row | Compound | miR-106b levels in hiPsCMs ([1]; 3 h of treatment) [fold control] | miR-106b levels in hiPsCMs ([1]; 15 h, p<0.001) | miR-106b levels in the culture media of hiPsCMs ([1]; significant from 15 h) | decrease in PR55α protein levels ([2]; 6 h of treatment) [fold control] | decrease in PR55α protein levels ([2]; 15 h, p<0.001) | phosphorylation state of HDAC4 Ser246 in cytosol [3] | total HDAC4 levels in nuclei fractions [3] | YY1 protein expression ([4]; 6 h of treatment) [fold control] | YY1 protein expression ([4]; 15 h, p<0.001) | HDAC4-YY1 interaction [5] | sST2 expression levels [6] | FOG2 mRNA levels [7] | FOG2 mRNA levels [8] | release of LDH [9] | loss of Dox-induced cell viability [10] | caspase 3/7 activity (myocardial apoptosis) [11] | PR55α levels ([2]; with or without Dox) | PP2A activity [12]
1 | COc1cccc2c1C(=O)c1c(O)c3c(c(O)c1C2=O)C[C@@](O)(C(=O)CO)C[C@@H]3O[C@H]1C[C@H](N)[C@H](O)[C@H](C)O1 [Dox, doxorubicin] | 2.3±0.03 | significantly higher | progressively increased | 2.6±0.02 | significantly higher | significantly increases | significative decrease in total HDAC4 levels | 3.8±0.23 | significantly higher | prevent HDAC4-YY1 interaction | increase in sST2 expression levels |  |  |  |  |  |  | 
2 | AM106: miRCURY LNA microRNA Inhibitor against miR-106b-5p, 5′-CACTGTCAGCACTTT-3′ (SEQ ID NO 3), sequence shown without LNA pattern (antisense CACUGUCAGCACUUU; LNA-modified inhibitor, LNA pattern not given here) |  |  |  |  |  | decreased phosphorylation state of HDAC4 | increased |  |  | favored these interaction | reverted this effect | prevent down-regulation of FOG2 mRNA levels | increases FOG2 mRNA levels | prevent the release of LDH | able to prevent | decrease in caspase 3/7 activity | prevented Dox-induced PR55α degradation | prevented Dox-induced PP2A activity decrease
